Counter-ions that a name gives are not always drawn.
Experiments:
[1] = tested on: MEK1 phosphorylation in the A375 human melanoma cell line; test: cells; details: A-375, read-out: pMEK IC50
A375 cells = test: cells; details: Homo sapiens, A-375, read-out: A375 Viability EC50
RAF kinases [2] = biological target: RAF kinases (Homo sapiens, UniProt P15056); test: biochemical
Protocol: (§1) Competition binding assays used herein were developed, validated and performed as described in Fabian et al., Nature Biotechnology 2005, 23, 329-336. […] The liganded beads were blocked with excess biotin and washed with blocking buffer (SeaBlock (Pierce), 1% BSA, 0.05% Tween 20, 1 mM DTT) to remove unbound ligand and to reduce non-specific binding. […] Test compounds were prepared as 100× stocks in DMSO and rapidly diluted into the aqueous environment. DMSO was added to control assays lacking a test compound. Primary screen interactions were performed in polypropylene 384-well plates in a final volume of 34 μt, while Kd determinations were performed in polystyrene 96-well plates in a final volume of 135 pt. […] The kinase concentration in the eluates was measured by quantitative PCR. Each kinase was tested individually against each compound. Kds were determined using eleven serial threefold dilutions. A selectivity score, which is a quantitative measure of selectivity of a compound against a panel of enzymes, may be calculated for a compound by dividing the number of enzymes for which a compound meets a set criteria, (for example, a binding constant of 100 nM or less), by the total number of enzymes tested. […] (Note, for those compounds tested in a larger kinase panel, as indicated by an asterisk (*) next to the S35 score, the divisor is 321 (i.e. the larger panel contains 321 distinct kinases, excluding mutant variants.)).

RAF kinases [3] = biological target: RAF kinases (Homo sapiens, UniProt P15056, V600E); test: biochemical
Protocol: as §1

RAF kinases [4] = biological target: RAF kinases (Homo sapiens, UniProt P04049); test: biochemical
Chain of RAF kinases (Homo sapiens, UniProt P04049) (P04049 whole entry): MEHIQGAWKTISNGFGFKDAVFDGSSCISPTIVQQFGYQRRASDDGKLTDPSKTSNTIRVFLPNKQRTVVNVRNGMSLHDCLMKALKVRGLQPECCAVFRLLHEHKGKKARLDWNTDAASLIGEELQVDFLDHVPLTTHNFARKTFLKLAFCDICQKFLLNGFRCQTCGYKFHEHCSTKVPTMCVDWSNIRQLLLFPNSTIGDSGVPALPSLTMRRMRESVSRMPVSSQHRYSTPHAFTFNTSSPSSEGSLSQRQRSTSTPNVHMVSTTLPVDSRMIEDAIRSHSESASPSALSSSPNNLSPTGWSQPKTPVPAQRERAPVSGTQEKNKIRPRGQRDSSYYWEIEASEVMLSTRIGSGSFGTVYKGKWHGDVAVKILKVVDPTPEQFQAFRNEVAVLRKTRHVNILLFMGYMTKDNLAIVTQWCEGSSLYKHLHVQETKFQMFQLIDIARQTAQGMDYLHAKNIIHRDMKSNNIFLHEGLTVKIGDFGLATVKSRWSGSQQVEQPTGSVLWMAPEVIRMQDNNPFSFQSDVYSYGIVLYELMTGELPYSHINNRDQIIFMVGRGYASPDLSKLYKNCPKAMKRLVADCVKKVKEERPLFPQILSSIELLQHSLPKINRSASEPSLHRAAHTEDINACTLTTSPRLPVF
Protocol: as §1

Chain of RAF kinases (Homo sapiens, UniProt P15056, V600E) (P15056 whole entry V600E): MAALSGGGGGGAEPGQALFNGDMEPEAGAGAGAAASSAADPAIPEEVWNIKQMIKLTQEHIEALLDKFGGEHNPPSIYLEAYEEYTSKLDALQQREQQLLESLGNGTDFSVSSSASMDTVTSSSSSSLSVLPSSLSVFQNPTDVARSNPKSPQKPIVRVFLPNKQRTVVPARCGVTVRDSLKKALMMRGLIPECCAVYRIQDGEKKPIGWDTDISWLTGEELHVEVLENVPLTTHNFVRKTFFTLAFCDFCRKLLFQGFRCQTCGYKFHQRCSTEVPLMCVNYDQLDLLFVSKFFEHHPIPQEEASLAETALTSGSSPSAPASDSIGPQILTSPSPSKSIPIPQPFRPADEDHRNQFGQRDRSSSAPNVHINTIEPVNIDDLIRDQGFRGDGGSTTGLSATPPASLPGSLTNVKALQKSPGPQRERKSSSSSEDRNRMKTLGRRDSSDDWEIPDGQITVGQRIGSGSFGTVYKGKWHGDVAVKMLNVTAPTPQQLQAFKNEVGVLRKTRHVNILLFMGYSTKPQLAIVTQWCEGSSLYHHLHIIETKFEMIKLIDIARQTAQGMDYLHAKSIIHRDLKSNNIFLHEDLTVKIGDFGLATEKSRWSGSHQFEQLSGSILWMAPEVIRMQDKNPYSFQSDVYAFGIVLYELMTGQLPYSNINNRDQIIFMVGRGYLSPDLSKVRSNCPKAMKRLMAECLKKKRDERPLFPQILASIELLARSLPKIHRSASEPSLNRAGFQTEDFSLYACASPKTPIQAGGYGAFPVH
Chain of RAF kinases (Homo sapiens, UniProt P15056) (P15056 whole entry): as the sequence (P15056 whole entry V600E) above, with E600V counted along it

Row | IC50 [1] [nM] | EC50 (A375 cells) [nM] | Kd (RAF kinases [2]) [nM] | Kd (RAF kinases [3]) [nM] | SMILES | Kd (RAF kinases [4]) [nM]
1 | 500 to 1000 | > 1000 | 500 to 1000 | 250 to 500 | COc1cc2ncnc(Oc3cccc(NC(=O)Nc4cc(-c5ccccc5)on4)c3)c2cc1OC [Ex 113, 1-(3-(6,7-dimethoxyquinazolin-4-yloxy)phenyl)-3-(5-phenylisoxazol-3-yl)urea] | –
2 | > 1000 | > 1000 | – | 250 to 500 | COc1cc2ncnc(Sc3cccc(NC(=O)Nc4ccc(C(F)(F)F)c(F)c4)c3)c2cc1OC [Ex 188, 1-(3-(6,7-dimethoxyquinazolin-4-ylthio)phenyl)-3-(3-fluoro-4-(trifluoromethyl)phenyl)urea] | 500 to 1000
3 | 500 to 1000 | > 1000 | – | 250 to 500 | CCOC(C)(C)c1cc(NC(=O)Nc2cccc(Oc3ncnc4cc(OCCOC)c(OC)cc34)c2)n(-c2ccccc2)n1 [Ex 212, 1-[3-(2-ethoxypropan-2-yl)-1-phenyl-1H-pyrazol-5-yl]-3-{3-[6-methoxy-7-(2-methoxyethoxy)quinazolin-4-yloxy]phenyl}urea] | –
4 | > 1000 | > 1000 | – | 250 to 500 | COCCOc1cc2ncnc(Oc3cccc(NC(=O)Nc4cc(C(=O)N5CCOCC5)cc(C(F)(F)F)c4)c3)c2cc1OC [Ex 205, 1-(3-(6-methoxy-7-(2-methoxyethoxy)quinazolin-4-yloxy)phenyl)-3-(3-(morpholine-4-carbonyl)-5-(trifluoromethyl)phenyl)urea] | –
5 | < 250 | > 1000 | – | 500 to 1000 | CCOC(C)(C)c1cc(NC(=O)Nc2cccc(Oc3ncnc4cc(OC)c(OC)cc34)c2)n(-c2ccccc2)n1 [Ex 168, 1-[3-(6,7-dimethoxyquinazolin-4-yloxy)phenyl]-3-[3-(2-ethoxypropan-2-yl)-1-phenyl-1H-pyrazol-5-yl]urea] | –
6 | 250 to 500 | > 1000 | – | 250 to 500 | COc1cc2ncnc(Oc3cccc(NC(=O)Nc4cc(C5(C(F)(F)F)CCC5)no4)c3)c2cc1OC [Ex 155, 1-(3-(6,7-dimethoxyquinazolin-4-yloxy)phenyl)-3-(3-(1-(trifluoromethyl)cyclobutyl)isoxazol-5-yl)urea] | –
7 | 500 to 1000 | > 1000 | – | 500 to 1000 | COc1cc2ncnc(Sc3cccc(NC(=O)Nc4cc(C5(C(F)(F)F)CCC5)no4)c3)c2cc1OC [Ex 156, 1-(3-(6,7-dimethoxyquinazolin-4-ylthio)phenyl)-3-(3-(1-(trifluoromethyl)cyclobutyl)isoxazol-5-yl)urea] | –
8 | > 1000 | > 1000 | – | 500 to 1000 | COc1cc2ncnc(Oc3cccc(NC(=O)Nc4cc(C(=O)N5CCOCC5)cc(C(F)(F)F)c4)c3)c2cc1OC [Ex 149, 1-(3-(6,7-dimethoxyquinazolin-4-yloxy)phenyl)-3-(3-(morpholine-4-carbonyl)-5-(trifluoromethyl)phenyl)urea] | –
9 | > 1000 | > 1000 | 500 to 1000 | 500 to 1000 | COCCOc1cc(NC(=O)Nc2cccc(Sc3ncnc4cc(OC)c(OC)cc34)c2)cc(C(F)(F)F)c1 [Ex 200, 1-(3-(6,7-dimethoxyquinazolin-4-ylthio)phenyl)-3-(3-(2-methoxyethoxy)-5-(trifluoromethyl)phenyl)urea] | –
10 | 250 to 500 | 250 to 500 | – | 500 to 1000 | COc1cc2ncnc(Oc3cccc(NC(=O)Nc4cc(C(F)(F)F)nn4-c4ccc(F)cc4)c3)c2cc1OC [Ex 171, 1-[3-(6,7-dimethoxyquinazolin-4-yloxy)phenyl]-3-[1-(4-fluorophenyl)-3-(trifluoromethyl)-1H-pyrazol-5-yl]urea] | –
11 | 500 to 1000 | > 1000 | – | 250 to 500 | CCOC(C)(C)c1cc(NC(=O)Nc2cccc(Sc3ncnc4cc(OCCOC)c(OC)cc34)c2)n(-c2ccccc2)n1 [Ex 241, 1-[3-(2-ethoxypropan-2-yl)-1-phenyl-1H-pyrazol-5-yl]-3-{3-[6-methoxy-7-(2-methoxyethoxy)quinazolin-4-ylthio]phenyl}urea] | –
12 | < 250 | 500 to 1000 | – | 500 to 1000 | COc1cc2ncnc(Oc3cccc(NC(=O)Nc4cc(C(C)(C)C)on4)c3)c2cc1O[C@H]1CCN(C(=O)OC(C)(C)C)C1 [Ex 108, (S)-tert-butyl 3-(4-(3-(3-(5-tert-butylisoxazole-3-yl)ureido)phenoxy)-7-methoxyquinazolin-6-yloxy)pyrrolidine-1-carboxylate] | –
13 | < 250 | 250 to 500 | – | 500 to 1000 | COc1cc2ncnc(Sc3cccc(NC(=O)Nc4cc(C(F)(F)F)nn4-c4ccccc4)c3)c2cc1OC [Ex 192, 1-[3-(6,7-dimethoxyquinazolin-4-ylthio)phenyl]-3-[1-phenyl-3-(trifluoromethyl)-1H-pyrazol-5-yl]urea] | –
14 | 250 to 500 | > 1000 | – | 250 to 500 | COCC(C)(C)c1cc(NC(=O)Nc2cccc(Oc3ncnc4cc(OC)c(OC)cc34)c2)no1 [Ex 130, 1-(3-(6,7-dimethoxyquinazolin-4-yloxy)phenyl)-3-(5-(1-methoxy-2-methylpropan-2-yl)isoxazol-3-yl)urea] | –

Second part, the molecule before the results:

Row | SMILES | IC50 [1] [nM] | EC50 (A375 cells) [nM] | Kd (RAF kinases [2]) [nM] | Kd (RAF kinases [3]) [nM] | Kd (RAF kinases [4]) [nM]
15 | COCCOc1cc(NC(=O)Nc2cccc(Oc3ncnc4cc(OC)c(OC)cc34)c2)cc(C(F)(F)F)c1 [Ex 129, 1-(3-(6,7-dimethoxyquinazolin-4-yloxy)phenyl)-3-(3-(2-methoxyethoxy)-5-(trifluoromethyl)phenyl)urea] | > 1000 | > 1000 | – | 250 to 500 | 250 to 500
16 | COc1ccc2ncnc(Sc3cccc(NC(=O)Nc4cc(C(C)(C)C)on4)c3)c2c1 [Ex 49, 1-(5-tert-butylisoxazol-3-yl)-3-(3-(6-methoxyquinazolin-4-ylthio)phenyl)urea] | 500 to 1000 | > 1000 | – | 250 to 500 | 500 to 1000
17 | COCCOc1ccc2ncnc(Sc3cccc(NC(=O)Nc4cc(C(C)(C)C)on4)c3)c2c1 [Ex 87, 1-(5-tert-butylisoxazol-3-yl)-3-(3-(6-(2-methoxyethoxy)quinazolin-4-ylthio)phenyl)urea] | 250 to 500 | > 1000 | – | 250 to 500 | 500 to 1000
18 | CCOc1cc2ncnc(Sc3cccc(NC(=O)Nc4cc(C(C)(C)C)on4)c3)c2cc1OCC [Ex 51, 1-(5-tert-butylisoxazol-3-yl)-3-[3-(6,7-diethoxyquinazolin-4-ylthio)phenyl]urea] | 250 to 500 | > 1000 | – | 500 to 1000 | –
19 | CC(C)(C)c1cc(NC(=O)Nc2cccc(Sc3ncnc4cc(F)c(F)cc34)c2)no1 [Ex 47, 1-(5-tert-butylisoxazol-3-yl)-3-(3-(6,7-difluoroquinazolin-4-ylthio)phenyl)urea] | > 1000 | > 1000 | – | 500 to 1000 | –
20 | CCOC(=O)Cn1nc(C(C)(C)C)cc1NC(=O)Nc1cccc(Sc2ncnc3cc(OC)c(OC)cc23)c1 [Ex 195, ethyl 2-(3-tert-butyl-5-{3-[3-(6,7-dimethoxyquinazolin-4-ylthio)phenyl]ureido}-1H-pyrazol-1-yl)acetate] | 250 to 500 | > 1000 | – | 250 to 500 | –
21 | CCOC(=O)Cn1nc(C(C)(C)C)cc1NC(=O)Nc1cccc(Oc2ncnc3cc(OC)c(OC)cc23)c1 [Ex 166, ethyl 2-(3-tert-butyl-5-{3-[3-(6,7-dimethoxyquinazolin-4-yloxy)phenyl]ureido}-1H-pyrazol-1-yl)acetate] | 500 to 1000 | > 1000 | – | 250 to 500 | –
22 | COc1cc2c(Oc3cccc(NC(=O)Nc4cc(C(C)(C)C)on4)c3)ncnc2cc1O[C@H]1CCN(CC(F)F)C1 [Ex 103, (S)-1-(5-tert-butylisoxazol-3-yl)-3-(3-{7-[1-(2,2-difluoroethyl)pyrrolidin-3-yloxy]-6-methoxyquinazolin-4-yloxy}phenyl)urea] | 500 to 1000 | > 1000 | – | 250 to 500 | –
23 | COc1cc2ncnc(Oc3cc(NC(=O)Nc4cc(C(C)(C)C)on4)ccc3Cl)c2cc1OC [Ex 10, 1-(5-tert-butylisoxazol-3-yl)-3-(4-chloro-3-(6,7-dimethoxyquinazolin-4-yloxy)phenyl)urea] | > 1000 | > 1000 | – | 500 to 1000 | –
24 | COc1cc2ncnc(Sc3cccc(NC(=O)Nc4ccc(C(F)(F)F)c(OC)c4)c3)c2cc1OC [Ex 190, 1-(3-(6,7-dimethoxyquinazolin-4-ylthio)phenyl)-3-(3-methoxy-4-(trifluoromethyl)phenyl)urea] | > 1000 | > 1000 | – | 500 to 1000 | –
25 | COc1ccc2c(Sc3cccc(NC(=O)Nc4cc(C(C)(C)C)on4)c3)ncnc2c1 [Ex 48, 1-(5-tert-butylisoxazol-3-yl)-3-(3-(7-methoxyquinazolin-4-ylthio)phenyl)urea] | 500 to 1000 | > 1000 | – | 250 to 500 | –
26 | CCOc1cc2ncnc(Oc3cccc(NC(=O)Nc4cc(C(C)(C)C)on4)c3)c2cc1OCC [Ex 13, 1-(5-tert-butylisoxazol-3-yl)-3-[3-(6,7-diethoxyquinazolin-4-yloxy)phenyl]urea hydrochloride] | 250 to 500 | 500 to 1000 | – | 250 to 500 | –
27 | COCCOc1cc(NC(=O)Nc2cccc(Sc3ncnc4cc(OC)c(OC)cc34)c2)ccc1C(F)(F)F [Ex 148, 1-(3-(6,7-dimethoxyquinazolin-4-ylthio)phenyl)-3-(3-(2-methoxyethoxy)-4-(trifluoromethyl)phenyl)urea] | > 1000 | > 1000 | – | 500 to 1000 | –
28 | COc1cc2ncnc(Sc3cccc(NC(=O)Nc4cc(C(F)(F)F)nn4-c4ccc(F)cc4)c3)c2cc1OC [Ex 198, 1-[3-(6,7-dimethoxyquinazolin-4-ylthio)phenyl]-3-[1-(4-fluorophenyl)-3-(trifluoromethyl)-1H-pyrazol-5-yl]urea] | 250 to 500 | 500 to 1000 | – | 500 to 1000 | –
29 | CC(C)(C)c1cc(NC(=O)Nc2cccc(Sc3ncnc4cc5c(cc34)OCCO5)c2)no1 [Ex 54, 1-(5-tert-butylisoxazol-3-yl)-3-[3-(7,8-dihydro-[1,4]dioxino[2,3-g]quinazolin-4-ylthio)phenyl]urea hydrochloride] | 500 to 1000 | > 1000 | – | 500 to 1000 | –

— patent publication US8618289B2 (Ambit Biosciences Corporation, priority 2008, dated 2013)
